US12559529B2, “NPY2 receptor agonists” (Boehringer Ingelheim International GmbH, priority 2019, dated 2026)
*1 amine or outer side, *2 acyl side, *3 side chain or, on linkers, in order; H or OH if unused. Where a SMILES comes first, the peptide text is derived from it. Side-chain parts run from the residue outwards. The star is where a group is joined. C18 diacid = O=C(O)CCCCCCCCCCCCCCCCC(=O)*; γGlu = O=C(O)[C@H](CCC(=O)[*:2])N[*:1]; Isovaleryl = CC(C)CC(=O)*; AEEA = NCCOCCOCC(=O)O

Target: T1, Human Neuropeptide Y2 Receptor (Homo sapiens, UniProt P49146)
T1 construct: purchased CHEMICON HTS066M
T1 sequence (P49146 1-381): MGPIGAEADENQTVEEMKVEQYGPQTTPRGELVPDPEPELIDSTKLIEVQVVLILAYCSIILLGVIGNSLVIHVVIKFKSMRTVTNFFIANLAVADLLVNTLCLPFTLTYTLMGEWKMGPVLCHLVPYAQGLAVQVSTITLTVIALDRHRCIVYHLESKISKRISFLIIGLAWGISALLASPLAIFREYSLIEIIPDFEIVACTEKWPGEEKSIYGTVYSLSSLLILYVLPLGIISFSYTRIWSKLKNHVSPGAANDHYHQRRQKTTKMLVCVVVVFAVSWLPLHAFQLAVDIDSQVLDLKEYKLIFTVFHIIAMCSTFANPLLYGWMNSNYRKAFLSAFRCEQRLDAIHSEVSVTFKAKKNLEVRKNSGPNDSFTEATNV
Assay: Radioligand binding competition assay (RLB)
Conditions: Table 3; human 125I-PYY (1-36) 0.02 nM, Y2 receptor membranes; read-out: Ki
Method in brief: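 Competition binding at commercial human NPY Y2 membrane preparations, 0.5 μg protein per well, 2 h incubation at room temperature. Bound and free ligand were separated on GF/C filters and counted; IC50 was fitted by nonlinear regression.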

Compound	Ki
CC(C)CC(=O)N[C@@H](C)C(=O)N1CCC[C@H]1C(=O)N[C@@H](CCC(=O)O)C(=O)N[C@@H](CCCCNC(=O)COCCOCCNC(=O)COCCOCCNC(=O)CC[C@H](NC(=O)CCCCCCCCCCCCCCCCC(=O)O)C(=O)O)C(=O)N1CCC[C@H]1C(=O)N[C@@H](CCC(=O)O)C(=O)N[C@@H](CCC(=O)O)C(=O)N[C@@H](CC(=O)O)C(=O)N[C@@H](C)C(=O)N[C@@H](CO)C(=O)N1CCC[C@H]1C(=O)N[C@@H](CCC(=O)O)C(=O)N[C@@H](CCC(=O)O)C(=O)N[C@@H](CC(C)C)C(=O)N[C@@H](CCC(N)=O)C(=O)N[C@@H](CCCNC(=N)N)C(=O)N[C@@H](Cc1ccc(O)cc1)C(=O)N[C@@H](CCC(N)=O)C(=O)N[C@H](C(=O)N[C@@H](CO)C(=O)N[C@@H](CC(C)C)C(=O)N[C@@H](CCCNC(=N)N)C(=O)N[C@@H](Cc1c[nH]cn1)C(=O)N[C@@H](Cc1ccc(O)cc1)C(=O)N[C@@H](Cc1ccc(O)cc1)C(=O)N[C@@H](CC(N)=O)C(=O)N[C@@H](Cc1c[nH]c2ccccc12)C(=O)N[C@@H](CC(C)C)C(=O)N[C@H](C(=O)N[C@@H](CCCNC(=N)N)C(=O)N[C@@H](CCC(N)=O)C(=O)N[C@@H](CCCNC(=N)N)C(=O)N[C@@H](Cc1ccc(O)cc1)C(N)=O)[C@@H](C)O)C(C)C [Compound 165, N{alpha-4}-(3-methylbutanoyl)-N{epsilon-7}-[2-(2-{2-[2-(2-{2-[(4S)-4-carboxy-4-(17-carboxyheptadecanamido)butanamido]ethoxy}ethoxy)acetamido]ethoxy}ethoxy)acetamido]-[4A,7K,9E,18Q,21Q,22V,28Y,30W,31L]hPYY (4-36)]	2.49 nM
CC(C)CC(=O)N[C@@H](C)C(=O)N1CCC[C@H]1C(=O)N[C@@H](CCC(=O)O)C(=O)N[C@@H](CCCCNC(=O)COCCOCCNC(=O)COCCOCCNC(=O)CC[C@H](NC(=O)CCCCCCCCCCCCCCCCC(=O)O)C(=O)O)C(=O)N1CCC[C@H]1C(=O)N1CCC[C@H]1C(=O)N[C@@H](C)C(=O)N[C@@H](CC(=O)O)C(=O)N[C@@H](C)C(=O)N[C@@H](CO)C(=O)N1CCC[C@H]1C(=O)N[C@@H](CCC(=O)O)C(=O)N[C@@H](CCC(=O)O)C(=O)N[C@@H](CC(C)C)C(=O)N[C@@H](CCC(N)=O)C(=O)N[C@@H](CCCNC(=N)N)C(=O)N[C@@H](Cc1ccc(O)cc1)C(=O)N[C@@H](Cc1ccc(O)cc1)C(=O)N[C@H](C(=O)N[C@@H](CCC(=O)O)C(=O)N[C@@H](CC(C)C)C(=O)N[C@@H](CCCNC(=N)N)C(=O)N[C@@H](Cc1c[nH]cn1)C(=O)N[C@@H](Cc1ccc(O)cc1)C(=O)N[C@@H](Cc1ccc(O)cc1)C(=O)N[C@@H](CC(N)=O)C(=O)N[C@@H](Cc1c[nH]c2ccccc12)C(=O)N[C@@H](CC(C)C)C(=O)N[C@H](C(=O)N[C@@H](CCCNC(=N)N)C(=O)N[C@@H](CCC(N)=O)C(=O)N[C@@H](CCCNC(=N)N)C(=O)N[C@@H](Cc1ccc(O)cc1)C(N)=O)[C@@H](C)O)C(C)C [Compound 166, N{alpha-4}-(3-methylbutanoyl)-N{epsilon-7}-[2-(2-{2-[2-(2-{2-[(4S)-4-carboxy-4-(17-carboxyheptadecanamido)butanamido]ethoxy}ethoxy)acetamido]ethoxy}ethoxy)acetamido]-[4A,7K,9P,10A,18Q,22V,23E,28Y,30W,31L]hPYY (4-36)]	0.66 nM

Continued, values first:

Ki	Compound
4.43 nM	CC(C)CC(=O)N[C@@H](C)C(=O)N1CCC[C@H]1C(=O)N[C@@H](CCC(=O)O)C(=O)N[C@@H](CCCCNC(=O)COCCOCCNC(=O)COCCOCCNC(=O)CC[C@H](NC(=O)CCCCCCCCCCCCCCCCC(=O)O)C(=O)O)C(=O)N1CCC[C@H]1C(=O)N[C@@H](CCC(=O)O)C(=O)N[C@@H](CCC(=O)O)C(=O)N[C@@H](CC(=O)O)C(=O)N[C@@H](C)C(=O)N[C@@H](CO)C(=O)N1CCC[C@H]1C(=O)N[C@@H](CCC(=O)O)C(=O)N[C@@H](CCC(=O)O)C(=O)N[C@@H](CC(C)C)C(=O)N[C@@H](CCC(N)=O)C(=O)N[C@@H](CCCNC(=N)N)C(=O)N[C@@H](Cc1ccc(O)cc1)C(=O)N[C@@H](Cc1ccc(O)cc1)C(=O)N[C@H](C(=O)N[C@@H](CO)C(=O)N[C@@H](CC(C)C)C(=O)N[C@@H](CCCNC(=N)N)C(=O)N[C@@H](Cc1c[nH]cn1)C(=O)N[C@@H](Cc1ccc(O)cc1)C(=O)N[C@@H](Cc1c[nH]c2ccccc12)C(=O)N[C@@H](CC(N)=O)C(=O)N[C@@H](Cc1ccc(O)cc1)C(=O)N[C@@H](CC(C)C)C(=O)N[C@H](C(=O)N[C@@H](CCCNC(=N)N)C(=O)N[C@@H](CCC(N)=O)C(=O)N[C@@H](CCCNC(=N)N)C(=O)N[C@@H](Cc1ccc(O)cc1)C(N)=O)[C@@H](C)O)C(C)C [Compound 158, N{alpha-4}-(3-methylbutanoyl)-N{epsilon-7}-[2-(2-{2-[2-(2-{2-[(4S)-4-carboxy-4-(17-carboxyheptadecanamido)butanamido]ethoxy}ethoxy)acetamido]ethoxy}ethoxy)acetamido]-[4A,7K,9E,18Q,22V,28W,30Y,31L]hPYY (4-36)] (Isovaleryl-APEK([AEEA-AEEA-γGlu-C18 diacid])PEEDASPEELQRYYVSLRHYWNYLTRQRY-NH2)
2 nM	CC(C)CC(=O)N[C@@H](C)C(=O)N1CCC[C@H]1C(=O)N[C@@H](CCC(=O)O)C(=O)N[C@@H](CCCCNC(=O)COCCOCCNC(=O)COCCOCCNC(=O)CC[C@H](NC(=O)CCCCCCCCCCCCCCCCC(=O)O)C(=O)O)C(=O)N1CCC[C@H]1C(=O)N[C@@H](CCC(=O)O)C(=O)N[C@@H](C)C(=O)N[C@@H](CC(=O)O)C(=O)N[C@@H](C)C(=O)N[C@@H](CCC(=O)O)C(=O)N1CCC[C@H]1C(=O)N[C@@H](CCC(=O)O)C(=O)N[C@@H](CCC(=O)O)C(=O)N[C@@H](CC(C)C)C(=O)N[C@@H](CCC(N)=O)C(=O)N[C@@H](CCCNC(=N)N)C(=O)N[C@@H](Cc1ccc(O)cc1)C(=O)N[C@@H](Cc1ccc(O)cc1)C(=O)N[C@H](C(=O)N[C@@H](CO)C(=O)N[C@@H](CC(C)C)C(=O)N[C@@H](CCCNC(=N)N)C(=O)N[C@@H](Cc1c[nH]cn1)C(=O)N[C@@H](Cc1ccc(O)cc1)C(=O)N[C@@H](Cc1ccc(O)cc1)C(=O)N[C@@H](CC(N)=O)C(=O)N[C@@H](Cc1c[nH]c2ccccc12)C(=O)N[C@@H](CC(C)C)C(=O)N[C@H](C(=O)N[C@@H](CCCNC(=N)N)C(=O)N[C@@H](CCC(N)=O)C(=O)N[C@@H](CCCNC(=N)N)C(=O)N[C@@H](Cc1ccc(O)cc1)C(N)=O)[C@@H](C)O)[C@@H](C)O [Compound 160, N{alpha-4}-(3-methylbutanoyl)-N{epsilon-7}-[2-(2-{2-[2-(2-{2-[(4S)-4-carboxy-4-(17-carboxyheptadecanamido)butanamido]ethoxy}ethoxy)acetamido]ethoxy}ethoxy)acetamido]-[4A,7K,9E,10A,13E,18Q,22T,28Y,30W,31L]hPYY (4-36)] (Isovaleryl-APEK([AEEA-AEEA-γGlu-C18 diacid])PEADAEPEELQRYYTSLRHYYNWLTRQRY-NH2)
2.34 nM	CC(C)CC(=O)N[C@@H](C)C(=O)N1CCC[C@H]1C(=O)N[C@@H](CCC(=O)O)C(=O)N[C@@H](CCCCNC(=O)COCCOCCNC(=O)COCCOCCNC(=O)CC[C@H](NC(=O)CCCCCCCCCCCCCCCCC(=O)O)C(=O)O)C(=O)N1CCC[C@H]1C(=O)N[C@@H](CCC(=O)O)C(=O)N[C@@H](CCC(=O)O)C(=O)N[C@@H](CCC(=O)O)C(=O)N[C@@H](C)C(=O)N[C@@H](CO)C(=O)N1CCC[C@H]1C(=O)N[C@@H](CCC(=O)O)C(=O)N[C@@H](CCC(=O)O)C(=O)N[C@@H](CC(C)C)C(=O)N[C@@H](CCC(N)=O)C(=O)N[C@@H](CCCNC(=N)N)C(=O)N[C@@H](Cc1ccc(O)cc1)C(=O)N[C@@H](Cc1ccc(O)cc1)C(=O)N[C@H](C(=O)N[C@@H](C)C(=O)N[C@@H](CC(C)C)C(=O)N[C@@H](CCCNC(=N)N)C(=O)N[C@@H](Cc1c[nH]cn1)C(=O)N[C@@H](Cc1ccc(O)cc1)C(=O)N[C@@H](Cc1ccc(O)cc1)C(=O)N[C@@H](CC(N)=O)C(=O)N[C@@H](Cc1c[nH]c2ccccc12)C(=O)N[C@@H](CC(C)C)C(=O)N[C@H](C(=O)N[C@@H](CCCNC(=N)N)C(=O)N[C@@H](CCC(N)=O)C(=O)N[C@@H](CCCNC(=N)N)C(=O)N[C@@H](Cc1ccc(O)cc1)C(N)=O)[C@@H](C)O)C(C)C [Compound 169, N{alpha-4}-(3-methylbutanoyl)-N{epsilon-7}-[2-(2-{2-[2-(2-{2-[(4S)-4-carboxy-4-(17-carboxyheptadecanamido)butanamido]ethoxy}ethoxy)acetamido]ethoxy}ethoxy)acetamido]-[4A,7K,9E,11E,18Q,22V,23A,28Y,30W,31L]hPYY (4-36)]
